Paper PMC9031249, “New 3-Acyl Tetramic Acid Derivatives from the Deep-Sea-Derived Fungus Lecanicillium fusisporum” (Marine Drugs, 2022)

Test system: NF-κB
Test: NF-κB luciferase reporter assay in LPS-induced RAW264.7 cells
Type: cell-based
Settings: LPS induced RAW264.7 cells stably transfected with NF-κB luciferase reporter; treated 4 h, then LPS 100 ng/mL for 6 h; read-out: EC50, inhibition of NF-κB production
Method: The effects of 1–8 on LPS-induced NF-κB luciferase activity were detected by luciferase reporter gene assay as described earlier. Briefly, RAW264.7 cells, stably transfected with a NF-κB luciferase reporter construct, were treated with 1–8 (30 μM) and BAY11-7082 (NF-κB inhibitor, 5 μM) for 4 h, followed by stimulation with LPS (100 ng/mL^−1) for 6 h. The luciferase activity was determined using the luciferase assay system (Promega, Madison, WI, USA). The dose-dependent effects of 1–8 and BAY11-7082 on LPS induced NF-κB luciferase activity were detected by the same assay.
Molecule `Cc1ccc(S(=O)(=O)/C=C/C#N)cc1` [BAY11-7082, reference compound] has an EC50 of 1.5 ± 1.4 µM.
`COC1CC(C2(O)C(=O)NC(=C(C)C)C2=O)CC(C)O1` (stereo not drawn) [Compound 6, Lecanicilliumin F] gave an EC50 of 24.7 ± 1.19 µM.
Work on `CC(C)=C1NC(=O)C(O)(C2C=CCC(C)O2)C1=O` (stereo not drawn) [Compound 2, Lecanicilliumin B] yielded an EC50 of 25.8 ± 1.3 µM.

Same assay, conditions: Mus musculus, RAW264.7, LPS induced RAW264.7 cells stably transfected with NF-κB luciferase reporter; treated 4 h, then LPS 100 ng/mL for 6 h; read-out: EC50, inhibition of NF-κB production
For `CC(C)=C1NC(=O)C(O)(C2C=CCC(C)O2)C1=O` (stereo not drawn) [Compound 1, Lecanicilliumin A], the EC50 was 18.5 ± 1.21 µM.
With `CC(C)=C1NC(=O)C(O)(CC=CCC(C)O)C1=O` (stereo not drawn) [Compound 7, Lecanicilliumin G] the EC50 was 26.5 ± 1.12 µM.
With `COC1CC(C2(O)C(=O)NC(=C(C)C)C2=O)CC(C)O1` (stereo not drawn) [Compound 5, Lecanicilliumin E] the EC50 was 23.1 ± 1.26 µM.

Test system: NO production in LPS-induced RAW264.7 cells
Test: not given
Design: method as in PMID 24016057, PMID 27976895
Settings: read-out: EC50, inhibition of NO production; cited from earlier work
For pseurotin G, the EC50 is listed as 57 µM.
In the case of `C/C=C/C1=CC=C/C(=C2\C(=O)CNC2=O)O1` [Vermelhotin], the EC50 is listed as 5.35 µM.
In the case of pseurotin A3, the EC50 is given as 34.5 µM.
